Experimental data as given in patent US11178871B2, “Herbicidal pyrimidine compounds” (BASF SE, priority 2016, dated 2021).

Columns and labels:
Format in all cases: in vivo
Abutilon theophrasti = experiment: greenhouse test, post-emergence treatment, ABUTH; conditions: 1000 g/ha
In short: (§1)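 Post-emergence: plants grown in loamy sand (~3.0% humus) to 3-15 cm, then sprayed with active ingredient suspended or emulsified in water; kept at 10-25 °C or 20-35 °C by species. Damage rated visually after 2-4 weeks, 0 (none) to 100 (complete destruction of aerial parts).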

Setaria faberi = experiment: greenhouse test, pre-emergence treatment, SETFA
Description: (§2) The culture containers used were plastic flowerpots containing loamy sand with approximately 3.0% of humus as the substrate. The seeds of the test plants were sown separately for each species.
(§3) For the pre-emergence treatment, the active ingredients, which had been suspended or emulsified in water, were applied directly after sowing by means of finely distributing nozzles. The containers were irrigated gently to promote germination and growth and subsequently covered with transparent plastic hoods until the plants had rooted. This cover caused uniform germination of the test plants, unless this had been impaired by the active ingredients.
(§4) Depending on the species, the plants were kept at 10-25° C. or 20-35° C., respectively.
(§5) The test period extended over 2 to 4 weeks. During this time, the plants were tended, and their response to the individual treatments was evaluated.
(§6) Evaluation was carried out using a scale from 0 to 100. 100 means no emergence of the plants, or complete destruction of at least the aerial moieties, and 0 means no damage, or normal course of growth. A good herbicidal activity is given at values of at least 70 and a very good herbicidal activity is given at values of at least 85.
(§7) The plants used in the greenhouse experiments were of the following species: […]

Echinocloa crus-galli [1] = experiment: greenhouse test, pre-emergence treatment, ECHCG
In short: (§8)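 Pre-emergence greenhouse test: seeds sown per species in loamy sand (about 3.0% humus), aqueous suspension or emulsion of active sprayed right after sowing, pots covered until rooting. Kept at 10-25 °C or 20-35 °C for 2 to 4 weeks; damage scored 0 (none) to 100 (no emergence/complete destruction).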

Amaranthus retroflexus [2] = experiment: greenhouse test, pre-emergence treatment, AMARE
Description: as §2, §3, §4, §5, §6, §7

Echinocloa crus-galli [3] = experiment: greenhouse test, post-emergence treatment, ECHCG
In short: as §1

Setaria viridis = experiment: greenhouse test, post-emergence treatment, SETVI; conditions: 1000 g/ha
In short: as §1

Agrostis stolonifera = experiment: greenhouse test, pre-emergence treatment, AGSST; conditions: 2000 g/ha
Description: as §2, §3, §4, §5, §6, §7

Poa annua [4] = experiment: greenhouse test, post-emergence treatment, POAAN; conditions: 2000 g/ha
Description: as §2
(§9) For the post-emergence treatment, the test plants were first grown to a height of 3 to 15 cm, depending on the plant habit, and only then treated with the active ingredients which had been suspended or emulsified in water. For this purpose, the test plants were either sown directly and grown in the same containers, or they were first grown separately as seedlings and transplanted into the test containers a few days prior to treatment.
as §4, §5, §6, §7

Alopecurus myosuroides = experiment: greenhouse test, post-emergence treatment, ALOMY
In short: as §1

Apera spica-venti [5] = experiment: greenhouse test, pre-emergence treatment, APESV
In short: as §8

Amaranthus retroflexus [6] = experiment: greenhouse test, post-emergence treatment, AMARE
In short: as §1

Avena fatua = experiment: greenhouse test, post-emergence treatment, AVEFA; conditions: 2000 g/ha
In short: as §1

Apera spica-venti [7] = experiment: greenhouse test, post-emergence treatment, APESV; conditions: 500 g/ha
Description: as §2, §9, §4, §5, §6, §7

Polygonum convolvulus = experiment: greenhouse test, post-emergence treatment, POLCO; conditions: 500 g/ha
Description: as §2, §9, §4, §5, §6, §7

Matricaria inodora = experiment: greenhouse test, post-emergence treatment, MATIN; conditions: 2000 g/ha
Description: as §2, §9, §4, §5, §6, §7

Poa annua [8] = experiment: greenhouse test, pre-emergence treatment, POAAN; conditions: 2000 g/ha
Description: as §2, §3, §4, §5, §6, §7

[9] = 500 g/ha, printed under post-emergence, method not restated

SMILES: COCC(=Cc1nc(C2CC2)ncc1-c1ccccc1Cl)COC [Ex. 293]
- herbicidal activity (Abutilon theophrasti): good (A good herbicidal activity is given at values of at least 70)
- herbicidal activity (Setaria faberi; 1000 g/ha): very good (a very good herbicidal activity is given at values of at least 85)
- herbicidal activity (Echinocloa crus-galli [1]; 1000 g/ha): good (A good herbicidal activity is given at values of at least 70)

SMILES: OC(c1cccs1)C(O)c1nc(C2CC2)ncc1-c1ccccc1Cl (stereo not shown) [Ex. 246]
- herbicidal activity (Amaranthus retroflexus [2]; 500 g/ha): very good (a very good herbicidal activity is given at values of at least 85)

SMILES: Clc1ccccc1-c1cnc(C2CC2)nc1C1CCOC1 (stereo not shown) [Ex. 59]
- herbicidal activity (Echinocloa crus-galli [3]; post-emergence, 1000 g/ha): good (A good herbicidal activity is given at values of at least 70)
- herbicidal activity (Setaria viridis): very good (a very good herbicidal activity is given at values of at least 85)
- herbicidal activity (Setaria faberi; 1000 g/ha): good (A good herbicidal activity is given at values of at least 70)
- herbicidal activity (Echinocloa crus-galli [1]; 1000 g/ha): very good (a very good herbicidal activity is given at values of at least 85)

SMILES: Cc1nc(C2CC2)ncc1-c1ccccc1C(F)(F)F [Ex. 17]
- herbicidal activity (Agrostis stolonifera): very good (a very good herbicidal activity is given at values of at least 85)
- herbicidal activity (Setaria faberi; 2000 g/ha): very good (a very good herbicidal activity is given at values of at least 85)
- herbicidal activity (Echinocloa crus-galli [1]; 2000 g/ha): very good (a very good herbicidal activity is given at values of at least 85)

SMILES: OC(c1nc(Cl)ccc1Cl)C(O)c1nc(C2CC2)ncc1-c1ccccc1Cl (stereo not shown) [Ex. 259]
- herbicidal activity (Echinocloa crus-galli [3]; post-emergence, 2000 g/ha): very good (a very good herbicidal activity is given at values of at least 85)
- herbicidal activity (Poa annua [4]): very good (a very good herbicidal activity is given at values of at least 85)
- herbicidal activity (Alopecurus myosuroides; post-emergence, 2000 g/ha): very good (a very good herbicidal activity is given at values of at least 85)
- herbicidal activity (Apera spica-venti [5]; 2000 g/ha): good (A good herbicidal activity is given at values of at least 70)
- herbicidal activity (Echinocloa crus-galli [1]; 2000 g/ha): good (A good herbicidal activity is given at values of at least 70)

SMILES: COC(=O)C(C)c1nc(C2CC2)ncc1-c1ccccc1Cl (stereo not shown) [Ex. 87]
- herbicidal activity (Alopecurus myosuroides; post-emergence, 2000 g/ha): very good (a very good herbicidal activity is given at values of at least 85)
- herbicidal activity (Amaranthus retroflexus [2]; 2000 g/ha): good (A good herbicidal activity is given at values of at least 70)

SMILES: Brc1ccccc1-c1cnc(C2CC2)nc1C(Br)Br [Ex. 27]
- herbicidal activity (Echinocloa crus-galli [3]; post-emergence, 2000 g/ha): very good (a very good herbicidal activity is given at values of at least 85)
- herbicidal activity (Agrostis stolonifera): very good (a very good herbicidal activity is given at values of at least 85)
- herbicidal activity (Alopecurus myosuroides; post-emergence, 2000 g/ha): very good (a very good herbicidal activity is given at values of at least 85)
- herbicidal activity (Apera spica-venti [5]; 2000 g/ha): very good (a very good herbicidal activity is given at values of at least 85)
- herbicidal activity (Amaranthus retroflexus [6]; 2000 g/ha): very good (a very good herbicidal activity is given at values of at least 85)
- herbicidal activity (Echinocloa crus-galli [1]; 2000 g/ha): very good (a very good herbicidal activity is given at values of at least 85)

SMILES: Clc1ccccc1-c1cnc(C2CC2)nc1C(Br)Br [Ex. 35]
- herbicidal activity (Echinocloa crus-galli [3]; post-emergence, 2000 g/ha): very good (a very good herbicidal activity is given at values of at least 85)
- herbicidal activity (Agrostis stolonifera): very good (a very good herbicidal activity is given at values of at least 85)
- herbicidal activity (Alopecurus myosuroides; post-emergence, 2000 g/ha): very good (a very good herbicidal activity is given at values of at least 85)
- herbicidal activity (Apera spica-venti [5]; 2000 g/ha): very good (a very good herbicidal activity is given at values of at least 85)
- herbicidal activity (Amaranthus retroflexus [6]; 2000 g/ha): very good (a very good herbicidal activity is given at values of at least 85)
- herbicidal activity (Echinocloa crus-galli [1]; 2000 g/ha): very good (a very good herbicidal activity is given at values of at least 85)

SMILES: Cc1noc(-c2nc(C3CC3)ncc2-c2ccccc2Cl)n1 [Ex. 295]
- herbicidal activity (Avena fatua): very good (a very good herbicidal activity is given at values of at least 85)
- herbicidal activity (Alopecurus myosuroides; post-emergence, 2000 g/ha): very good (a very good herbicidal activity is given at values of at least 85)
- herbicidal activity (Apera spica-venti [5]; 2000 g/ha): very good (a very good herbicidal activity is given at values of at least 85)
- herbicidal activity (Amaranthus retroflexus [2]; 2000 g/ha): very good (a very good herbicidal activity is given at values of at least 85)
- herbicidal activity (Echinocloa crus-galli [1]; 2000 g/ha): very good (a very good herbicidal activity is given at values of at least 85)

SMILES: Fc1ccc(-c2nc(C3CC3)ncc2-c2ccccc2Cl)cc1 [Ex. 11]
- herbicidal activity (Setaria faberi; 2000 g/ha): very good (a very good herbicidal activity is given at values of at least 85)
- herbicidal activity (Echinocloa crus-galli [1]; 2000 g/ha): good (A good herbicidal activity is given at values of at least 70)

SMILES: COC(C)Cc1nc(C2CC2)ncc1-c1ccccc1Cl (stereo not shown) [Ex. 233]
- herbicidal activity (Amaranthus retroflexus [2]; 2000 g/ha): very good (a very good herbicidal activity is given at values of at least 85)

SMILES: O=[N+]([O-])c1ccccc1-c1cnc(C2CC2)nc1-c1ccco1 [Ex. 37]
- herbicidal activity (Setaria faberi; 2000 g/ha): good (A good herbicidal activity is given at values of at least 70)

SMILES: Cc1cocc1-c1nc(C2CC2)ncc1-c1ccccc1Br [Ex. 269]
- herbicidal activity (Echinocloa crus-galli [3]; post-emergence, 1000 g/ha): very good (a very good herbicidal activity is given at values of at least 85)
- herbicidal activity (Setaria faberi; 1000 g/ha): very good (a very good herbicidal activity is given at values of at least 85)

SMILES: CCc1nc(CC)c(-c2nc(C3CC3)ncc2-c2ccccc2Br)o1 [Ex. 311]
- herbicidal activity (Echinocloa crus-galli [3]; [9]): very good (a very good herbicidal activity is given at values of at least 85)
- herbicidal activity (Apera spica-venti [7]): very good (a very good herbicidal activity is given at values of at least 85)
- herbicidal activity (Alopecurus myosuroides; [9]): very good (a very good herbicidal activity is given at values of at least 85)
- herbicidal activity (Alopecurus myosuroides; post-emergence, 500 g/ha): very good (a very good herbicidal activity is given at values of at least 85)
- herbicidal activity (Polygonum convolvulus): very good (a very good herbicidal activity is given at values of at least 85)
- herbicidal activity (Amaranthus retroflexus [6]; 500 g/ha): very good (a very good herbicidal activity is given at values of at least 85)

SMILES: COc1ncc(OC)c(-c2nc(C3CC3)ncc2-c2ccccc2Cl)n1 [Ex. 251]
- herbicidal activity (Amaranthus retroflexus [2]; 500 g/ha): very good (a very good herbicidal activity is given at values of at least 85)

SMILES: OC1(c2nc(C3CC3)ncc2-c2ccccc2Cl)C(F)(F)C(F)(F)C(F)(F)C(F)(F)C1(F)F [Ex. 229]
- herbicidal activity (Apera spica-venti [5]; 1000 g/ha): very good (a very good herbicidal activity is given at values of at least 85)
- herbicidal activity (Amaranthus retroflexus [2]; 1000 g/ha): good (A good herbicidal activity is given at values of at least 70)

SMILES: CCc1ncoc1-c1nc(C2CC2)ncc1-c1ccccc1Cl [Ex. 286]
- herbicidal activity (Echinocloa crus-galli [3]; post-emergence, 1000 g/ha): very good (a very good herbicidal activity is given at values of at least 85)
- herbicidal activity (Abutilon theophrasti): very good (a very good herbicidal activity is given at values of at least 85)
- herbicidal activity (Apera spica-venti [5]; 1000 g/ha): very good (a very good herbicidal activity is given at values of at least 85)
- herbicidal activity (Amaranthus retroflexus [2]; 1000 g/ha): very good (a very good herbicidal activity is given at values of at least 85)
- herbicidal activity (Amaranthus retroflexus [6]; 1000 g/ha): very good (a very good herbicidal activity is given at values of at least 85)
- herbicidal activity (Echinocloa crus-galli [1]; 1000 g/ha): very good (a very good herbicidal activity is given at values of at least 85)

SMILES: N#CC(C#N)c1nc(C2CC2)ncc1-c1ccc(F)cc1Br [Ex. 36]
- herbicidal activity (Agrostis stolonifera): very good (a very good herbicidal activity is given at values of at least 85)
- herbicidal activity (Matricaria inodora): very good (a very good herbicidal activity is given at values of at least 85)
- herbicidal activity (Poa annua [8]): very good (a very good herbicidal activity is given at values of at least 85)

SMILES: Clc1ccccc1-c1cnc(C2CC2)nc1-c1ccnnc1 [Ex. 234]
- herbicidal activity (Poa annua [4]): good (A good herbicidal activity is given at values of at least 70)
- herbicidal activity (Apera spica-venti [5]; 2000 g/ha): very good (a very good herbicidal activity is given at values of at least 85)

SMILES: N#CC(C#N)c1nc(C2CC2)ncc1-c1ccccc1Br [Ex. 25]
- herbicidal activity (Agrostis stolonifera): very good (a very good herbicidal activity is given at values of at least 85)
- herbicidal activity (Matricaria inodora): very good (a very good herbicidal activity is given at values of at least 85)
- herbicidal activity (Poa annua [8]): very good (a very good herbicidal activity is given at values of at least 85)
